Results as given in patent US8524773B2, “Utilization of dialkylfumarates” (Biogen Idec International GmbH, priority 1998, dated 2013).
Where a name gives a salt, the structure may show the parent alone.

Legend:
haemagglutination [1] = test: in vivo haemagglutination; conditions: compared with cyclosporine
Ehrlich ascites tumour = conditions: mice; cited from earlier work
haemagglutination [2] = test: in vitro haemagglutination; conditions: compared with cyclosporine
isolated monocytes = test: endotoxin-stimulated TNF-α secretion in isolated monocytes; format: cell-based, human
[3] = system: human mononuclear cells of periphere blood (PBMC cells); test: endotoxin-stimulated TNF-α secretion in PBMC cells; format: cell-based

SMILES | effect on in vivo haemagglutination (haemagglutination [1]) | growth of the Ehrlich ascites tumour (Ehrlich ascites tumour) | effect on in vitro haemagglutination (haemagglutination [2]) | endotoxin-stimulated TNF-α secretion (isolated monocytes) | endotoxin-stimulated TNF-α secretion [3]
O=C(O)/C=C/C(=O)O [fumaric acid] | comparable to that of cyclosporine | inhibits the growth | comparable to that of cyclosporine |  | 
COC(=O)/C=C/C(=O)O [methyl hydrogen fumarate] |  |  |  | initially increases | initially increases
